From publication PMC6930599, “Novel Flavonoid Glycosides of Quercetin from Leaves and Flowers of Gaiadendron punctatum G.Don. (Violeta de Campo), used by the Saraguro Community in Southern Ecuador, Inhibit α-Glucosidase Enzyme” (Molecules, 2019)

Columns and labels:
Assay type in all cases: biochemical
[1] = target: T1, α-glucosidase (Saccharomyces cerevisiae, Sigma G5003); assay: p-nitrophenol release at […] nm, microplate; conditions: PNPG (20 μL of 5 mM), PBS pH 7.4, 37 °C, 5 min pre-incubation; error is SE; read-out: α-Glucosidase IC50 (SE) (mg/mL, μM†)
T1 construct: gene MAL12; commercial yeast enzyme preparation (Sigma)

[2] = target: T1, α-glucosidase (Saccharomyces cerevisiae, Sigma G5003); assay: p-nitrophenol release at […] nm, progress curves at several PNPG and inhibitor concentrations; conditions: PNPG 1-15 mM, pH 7.4, 37 °C, unreliable: b44 prints another KI, Ki unit not printed (doses in μM)
[3] = test system: T1, α-glucosidase (Saccharomyces cerevisiae, Sigma G5003); assay: p-nitrophenol release at […] nm, initial PNPG varied; conditions: no inhibitor; PBS pH 7.4, 37 °C; error is SE

With C[C@@H]1O[C@@H](OC[C@H]2O[C@@H](Oc3c(-c4ccc(O)cc4)oc4cc(O)cc(O)c4c3=O)[C@H](O)[C@@H](O)[C@@H]2O)[C@H](O)[C@H](O)[C@H]1O [compound 1, Nicotiflorin] the IC50 [1] was 159 µM.
With C[C@@H]1O[C@H](O[C@@H]2[C@@H](O)[C@H](O)[C@@H](COc3ccc(-c4oc5cc(O)cc(O)c5c(=O)c4O)cc3O)O[C@H]2O)[C@H](O)[C@H](O)[C@H]1O [compound 4, quercetin-4’-O-(2-O-β-rhamno-pyranosyl-6-β-glucopyranoside)] the Ki ([2]; competitive in table, non-competitive in abstract) was 3.92 (1.48) and the IC50 [1] was 9.66 µM.
In the case of C[C@@H]1O[C@H](OC[C@H]2O[C@@H](Oc3c(-c4ccc(O)c(O)c4)oc4cc(O)cc(O)c4c3=O)[C@H](O[C@H]3O[C@@H](C)[C@H](O)[C@@H](O)[C@H]3O)[C@@H](O)[C@@H]2O)[C@H](O)[C@H](O)[C@H]1O [compound 5, quercetin-3-O-(2,6-di-O-β,β-rhamno-pyranosyl-β-glucopyranoside)], the Ki ([2]; non-competitive in table, competitive in abstract) is reported as 12.29(1.58) and the IC50 [1] is reported as 16.9 µM.
With O=[N+]([O-])c1ccc(O[C@H]2O[C@H](CO)[C@@H](O)[C@H](O)[C@H]2O)cc1 [p-Nitrophenyl-α-D-glucopyranoside] the Km [3] was 986 µM.
